Experiments:
[1] = Surface charge determination by fluorescein test; assay type: physicochemical; conditions: activated glass coverslips, spin-coated, baked at 110° C. for 60 minutes
Description: Surface cationic density (N^+/cm^2) was calculated using UV/Vis absorbance of fluorescein. Fluorescein dye molecules (negatively charged) strongly bind to quaternary amino groups (positively charged) belonging to the polymeric chain. The stoichiometry of fluorescein binding is estimated at one dye molecule per four quaternary ammonium moieties. Treated plates were placed in a 1% fluorescein aqueous solution for five minutes, and then rinsed and sonicated in distilled water for several minutes in order to remove physisorbed fluorescein. Plates were rinsed with distilled water and immersed in 3 mL of CTAB 0.5% (aqueous solution of cetyltrimehylammonium bromide) along with PBS (Phosphate-Buffered Saline) (90% CTAB/10% PBS) and sonicated for 10 minutes. The optical density of chemisorbed fluorescein was measured at 501 nm wavelength.

[2] = Manual friction / abrasion resistance of electrostatically sprayed coatings on glass slides; assay type: physicochemical; conditions: glass slide
Description: A glass slide was treated according to the following protocol: • 1) The surface was prepared by cleaning with isopropanol, and allowed to dry; • 2) The sprayer was held about 1 m from the target surface. • 3) The titanium anatase phase in aqueous solution (a mixture of peroxotitanic acid and peroxo-modified anatase sol 0.8%) was sprayed onto the surface using an electrostatic sprayer to form a coating on the target surface. • 4) The surface was allowed to dry for 5 to 10 minutes. • 5) The electrostatic sprayer was rinsed with distilled water. • 6) The biocidal polymer coating solution was added to the sprayer tank. • 7) The biocidal polymer coating solution was sprayed onto the surface at a 1 m distance away from the surface. • 8) The surface was examined to ensure it was not over-saturated with coating solution. • 9) The surface was allowed to dry for several hours.
A second glass slide was treated according to the protocol described above, except the surface was coated with the biocidal polymer solution first, followed by the titanium anatase phase.
In both methods, it was observed that the coating resisted repeated manual friction (over 20 cycles) using both wetted and dry paper towel, cotton-based cloth, and polyester/polypropylene wipes.
Treated and control glass slides were transferred to a 1% fluorescein solution for 10 minutes. […]

SMILES | Calculated surface cationic density [1] | resistance of coating to repeated manual friction ([2]; sprayed with titanium anatase 0.8%, wetted and dry paper towel, cotton cloth, polyester/polypropylene wipes) | abrasion resistance by fluorescein test after manual friction ([2]; titanium anatase sprayed first, then the coating solution)
CCCCCCCCCCCCCCCCCC[N+](C)(C)CC(=O)c1ccc(O)c(O)c1 | 4×10^14 cations/cm^2 | – | –
CCCCCCCCCCCCCCCCCC[N+](C)(C)CCC[Si](OC)(OC)OC.[Cl-] [octadecyldimethyl(3-trimethoxysilylpropyl)ammonium chloride] | – | did not resist manual friction | did not resist minor abrasion

Reference: patent publication US20250143307A1 (priority 2021, published 2025)
